Laboratory results reported in ChEMBL document CHEMBL3885861, “Open TG-GATES”.

Organism: Rattus norvegicus
Assay: Open TG-GATES - Regimen: Daily Repeat
Assay type: toxicity, organism-based, Sprague-Dawley
Set-up: regimen Daily Repeat, gender Male, age 6 weeks
Conditions: in vivo, po, 300 mg/kg, route gavage, dose level Middle; for APTT / Bas / Eos / Fbg / Hb / Ht / Lym / MCH / MCHC / MCV / Mono / Neu / PT / Plat / RBC / Ret / WBC: tissue Blood; for KIDNEY_L / KIDNEY_R / KIDNEY_TOTAL: tissue Kidney; for LIVER: tissue Liver; for A/G / ALP / ALT / AST / BUN / CRE / Ca / Cl / DBIL / GLC / IP / K / LDH / Na / PL / RALB / TBIL / TC / TG / TP / gamma-GTP: tissue Plasma

In the case of `CN/C(=N/CCSCc1nc[nH]c1C)NC#N` [CIMETIDINE], the TERMINAL_BW (72 h, time 3 day) is reported as 228.5 g, the APTT (72 h, time 3 day) is reported as 18.9 s and the Bas (72 h, time 3 day) is reported as 0%. It also gave an Eos (72 h, time 3 day) of 1%, a Fbg (72 h, time 3 day) of 228.2 mg/dL and a Hb (72 h, time 3 day) of 13.1 g/dL. It also gave a Ht (72 h, time 3 day) of 39.2%, a Lym (72 h, time 3 day) of 80% and an MCH (72 h, time 3 day) of 21.3 pg. It also gave an MCHC (72 h, time 3 day) of 33.6%, an MCV (72 h, time 3 day) of 63.5 fL and a Mono (72 h, time 3 day) of 2.6%. For the same compound, the Neu (72 h, time 3 day) was 14.8%, the PT (72 h, time 3 day) was 12.4 s and the Plat (72 h, time 3 day) was 125.9 x10_4/uL. It also gave an RBC (72 h, time 3 day) of 616.6 x10_4/ul, a Ret (72 h, time 3 day) of 6% and a WBC (72 h, time 3 day) of 104.1 x10_2/uL. The KIDNEY_L (72 h, time 3 day) was 1 g, the KIDNEY_R (72 h, time 3 day) was 1 g and the KIDNEY_TOTAL (72 h, time 3 day) was 2 g. It also gave an LIVER (72 h, time 3 day) of 11.4 g, an A/G (72 h, time 3 day) of 1.6 and an ALP (72 h, time 3 day) of 1094.2 IU/L. The ALT (72 h, time 3 day) was 37.6 IU/L, the AST (72 h, time 3 day) was 67.2 IU/L and the BUN (72 h, time 3 day) was 15.8 mg/dL. The CRE (72 h, time 3 day) was 0.4 mg/dL, the Ca (72 h, time 3 day) was 11.1 mg/dL and the Cl (72 h, time 3 day) was 102.4 meq/L. For the same compound, the DBIL (72 h, time 3 day) was 0.1 mg/dL, the GLC (72 h, time 3 day) was 195 mg/dL and the IP (72 h, time 3 day) was 7.2 mg/dL. The K (72 h, time 3 day) was 4.1 meq/L, the LDH (72 h, time 3 day) was 140.8 IU/L and the Na (72 h, time 3 day) was 140.8 meq/L. For the same compound, the PL (72 h, time 3 day) was 156.2 mg/dL, the RALB (72 h, time 3 day) was 3.5 g/dL and the TBIL (72 h, time 3 day) was 0.2 mg/dL. It also gave a TC (72 h, time 3 day) of 79.2 mg/dL, a TG (72 h, time 3 day) of 119.8 mg/dL and a TP (72 h, time 3 day) of 5.7 g/dL. For the same compound, the gamma-GTP (72 h, time 3 day) was 0.6 IU/L, the TERMINAL_BW ([…], time 7 day) was 259.4 g and the TERMINAL_BW ([…], time 14 day) was 317.5 g. The TERMINAL_BW ([…], time 28 day) was 390.1 g, the APTT ([…], time 7 day) was 19.2 s and the Bas ([…], time 7 day) was 0%. It also gave an Eos ([…], time 7 day) of 1%, a Fbg ([…], time 7 day) of 222.6 mg/dL and a Hb ([…], time 7 day) of 13.6 g/dL. For the same compound, the Ht ([…], time 7 day) was 40.9%, the Lym ([…], time 7 day) was 78.2% and the MCH ([…], time 7 day) was 21 pg. The MCHC ([…], time 7 day) was 33.1%, the MCV ([…], time 7 day) was 63.2 fL and the Mono ([…], time 7 day) was 2.6%. For the same compound, the Neu ([…], time 7 day) was 16.6%, the PT ([…], time 7 day) was 12.6 s and the Plat ([…], time 7 day) was 127.8 x10_4/uL. The RBC ([…], time 7 day) was 646.8 x10_4/ul, the Ret ([…], time 7 day) was 5.3% and the WBC ([…], time 7 day) was 107.7 x10_2/uL. It also gave an APTT ([…], time 14 day) of 18.9 s, a Bas ([…], time 14 day) of 0% and an Eos ([…], time 14 day) of 1%. For the same compound, the Fbg ([…], time 14 day) was 222.4 mg/dL, the Hb ([…], time 14 day) was 14.2 g/dL and the Ht ([…], time 14 day) was 42.9%. The Lym ([…], time 14 day) was 80%, the MCH ([…], time 14 day) was 20 pg and the MCHC ([…], time 14 day) was 32.9%. It also gave an MCV ([…], time 14 day) of 60.6 fL, a Mono ([…], time 14 day) of 2.8% and a Neu ([…], time 14 day) of 15.8%. It also gave a PT ([…], time 14 day) of 12.7 s, a Plat ([…], time 14 day) of 125.7 x10_4/uL and an RBC ([…], time 14 day) of 709.6 x10_4/ul. It also gave a Ret ([…], time 14 day) of 4.3%, a WBC ([…], time 14 day) of 117.5 x10_2/uL and an APTT ([…], time 28 day) of 18.7 s. The Bas ([…], time 28 day) was 0%, the Eos ([…], time 28 day) was 1% and the Fbg ([…], time 28 day) was 225.2 mg/dL. For the same compound, the Hb ([…], time 28 day) was 14.6 g/dL, the Ht ([…], time 28 day) was 42.1% and the Lym ([…], time 28 day) was 82.6%. The MCH ([…], time 28 day) was 19.5 pg, the MCHC ([…], time 28 day) was 34.6% and the MCV ([…], time 28 day) was 56.3 fL. It also gave a Mono ([…], time 28 day) of 2.2%, a Neu ([…], time 28 day) of 13.2% and a PT ([…], time 28 day) of 13 s. It also gave a Plat ([…], time 28 day) of 108.2 x10_4/uL, an RBC ([…], time 28 day) of 747.2 x10_4/ul and a Ret ([…], time 28 day) of 2.5%. For the same compound, the WBC ([…], time 28 day) was 140.1 x10_2/uL, the KIDNEY_L ([…], time 7 day) was 1.1 g and the KIDNEY_R ([…], time 7 day) was 1.1 g. For the same compound, the KIDNEY_TOTAL ([…], time 7 day) was 2.2 g, the KIDNEY_L ([…], time 14 day) was 1.2 g and the KIDNEY_R ([…], time 14 day) was 1.2 g. The KIDNEY_TOTAL ([…], time 14 day) was 2.4 g, the KIDNEY_L ([…], time 28 day) was 1.4 g and the KIDNEY_R ([…], time 28 day) was 1.4 g. The KIDNEY_TOTAL ([…], time 28 day) was 2.8 g, the LIVER ([…], time 7 day) was 12.3 g and the LIVER ([…], time 14 day) was 14.6 g. It also gave an LIVER ([…], time 28 day) of 16.3 g, an A/G ([…], time 7 day) of 1.5 and an ALP ([…], time 7 day) of 951.8 IU/L. The ALT ([…], time 7 day) was 32.2 IU/L, the AST ([…], time 7 day) was 64.6 IU/L and the BUN ([…], time 7 day) was 17.6 mg/dL. It also gave a CRE ([…], time 7 day) of 0.4 mg/dL, a Ca ([…], time 7 day) of 10.8 mg/dL and a Cl ([…], time 7 day) of 102.4 meq/L. For the same compound, the DBIL ([…], time 7 day) was 0.094 mg/dL, the GLC ([…], time 7 day) was 234.6 mg/dL and the IP ([…], time 7 day) was 7.6 mg/dL. It also gave a K ([…], time 7 day) of 3.8 meq/L, an LDH ([…], time 7 day) of 168 IU/L and a Na ([…], time 7 day) of 141.4 meq/L. It also gave a PL ([…], time 7 day) of 156.2 mg/dL, an RALB ([…], time 7 day) of 3.4 g/dL and a TBIL ([…], time 7 day) of 0.1 mg/dL. The TC ([…], time 7 day) was 73.4 mg/dL, the TG ([…], time 7 day) was 120 mg/dL and the TP ([…], time 7 day) was 5.6 g/dL. For the same compound, the gamma-GTP ([…], time 7 day) was 1.4 IU/L, the A/G ([…], time 14 day) was 1.4 and the ALP ([…], time 14 day) was 1080.4 IU/L. The ALT ([…], time 14 day) was 37.8 IU/L, the AST ([…], time 14 day) was 65.8 IU/L and the BUN ([…], time 14 day) was 19.2 mg/dL. It also gave a CRE ([…], time 14 day) of 0.4 mg/dL, a Ca ([…], time 14 day) of 10.5 mg/dL and a Cl ([…], time 14 day) of 102 meq/L. It also gave a DBIL ([…], time 14 day) of 0.1 mg/dL, a GLC ([…], time 14 day) of 216.2 mg/dL and an IP ([…], time 14 day) of 7.2 mg/dL. The K ([…], time 14 day) was 3.9 meq/L, the LDH ([…], time 14 day) was 176.4 IU/L and the Na ([…], time 14 day) was 140.6 meq/L. It also gave a PL ([…], time 14 day) of 164.2 mg/dL, an RALB ([…], time 14 day) of 3.3 g/dL and a TBIL ([…], time 14 day) of 0.2 mg/dL. The TC ([…], time 14 day) was 77.6 mg/dL, the TG ([…], time 14 day) was 129 mg/dL and the TP ([…], time 14 day) was 5.8 g/dL. For the same compound, the gamma-GTP ([…], time 14 day) was 1 IU/L, the A/G ([…], time 28 day) was 1.3 and the ALP ([…], time 28 day) was 725.6 IU/L. It also gave an ALT ([…], time 28 day) of 39.4 IU/L, an AST ([…], time 28 day) of 67 IU/L and a BUN ([…], time 28 day) of 18.6 mg/dL. The CRE ([…], time 28 day) was 0.5 mg/dL, the Ca ([…], time 28 day) was 10.1 mg/dL and the Cl ([…], time 28 day) was 101.8 meq/L. The DBIL ([…], time 28 day) was 0.1 mg/dL, the GLC ([…], time 28 day) was 253 mg/dL and the IP ([…], time 28 day) was 6.7 mg/dL. The K ([…], time 28 day) was 3.4 meq/L, the LDH ([…], time 28 day) was 183.8 IU/L and the Na ([…], time 28 day) was 140.2 meq/L. The PL ([…], time 28 day) was 148 mg/dL, the RALB ([…], time 28 day) was 3.3 g/dL and the TBIL ([…], time 28 day) was 0.2 mg/dL. It also gave a TC ([…], time 28 day) of 70.6 mg/dL, a TG ([…], time 28 day) of 128 mg/dL and a TP ([…], time 28 day) of 5.8 g/dL. For the same compound, the gamma-GTP ([…], time 28 day) was 1.2 IU/L.
